From US7780997B2, “Pharmaceutically active extracts of vitex leucoxylon, a process of extracting the same and a method of treating diabetes and inflammatory diseases therewith” (Laila Impex, priority 2005, dated 2010)

What was measured:
[1] = test system: Albino wistar rats; test: Hypoglycemic activity: inhibition of sucrose-induced raise in serum glucose levels (SGL); assay type: in vivo, rat; details: for Increased SGL (mean ± SE): 20 mL/kg of 20% sucrose after 30 min, blood one hour after treatment, rats; for % of inhibition (increase in serum glucose levels vs control): sucrose-loaded rats
Protocol: Hypoglycemic activity: Hypoglycemic activity was tested by the inhibition of sucrose-induced raise in serum glucose levels (SGL), by the V. leucoxylon extracts in Albino wistar rats. The procedure involves fasting the rats for overnight at ad libitum water, numbered weighed and randomly divided into groups of three animals each. Prior to treatment blood samples were drawn from sinus orbital plexus of all animals using heparin coated glass capillaries under mild ether anesthesia. The blood samples were tested for serum glucose levels using enzymatic GOD/POD method. Optical densities were measured at 500 nm, SGL was calculated as follows. SGL=(test OD/Standard OD)×100 and the results were expressed in mg/dL. All the groups were treated orally with corresponding test substances, standard, vehicle (5% gum acacia). After 30 minutes, all animals were given 20 mL/kg of 20% sucrose solution orally using gastric tube. One hour after treatment, blood samples were drawn again under mild ether anesthesia and tested for serum glucose levels in a similar procedure as described above for initial serum glucose estimation. The data was subjected to statistical treatment using t-test and inhibitory rate was calculated by comparing mean increase in serum glucose levels of control and red groups.

[2] = test system: Albino wistar rats; test: Anti-inflammatory activity (Carrageenin induced paw edema method); assay type: in vivo; details: Rattus norvegicus, oral dose 25 mg/Kg, 3 h after carrageenin
Protocol: Anti-inflammatory activity (Carrageenin induced paw edema method): Prior to the experiment all the animals (Albino wistar rats of either sex weighing between 180-300 g) fasted at ad libitum water and were weighed, numbered and randomly divided into groups, each containing 3 animals. Initial paw volumes were measured using plethesmometer and noted. All the groups were treated with corresponding test substance orally using gastric tube. Control group was treated with 10 mL/Kg vehicle (0.5%, carboxymethyl cellulose sodium salt). After 30 minutes, all the animals were injected subcutaneously at subplantar region of left hind paw 1% carrageenin 0.1 mL using hypodermic needle. All the animals were administered water 20 mL/Kg body weight and kept devoid of water for 3 h (maintained uniform hydration). After 3 h, paw volumes of all the animals were measured twice and average volume from two measurements were recorded. The % of inhibition of paw edema was calculated by comparing paw edema of test substance treated groups with that of control groups.

Compound: C[C@H]1[C@H](C)CC[C@]2(C(=O)O)CC[C@]3(C)C(=CC[C@@H]4[C@@]5(C)C[C@@H](O)[C@H](O)C(C)(C)[C@@H]5CC[C@]43C)[C@H]12 [Corosolic acid]
- Increased SGL (mean ± SE) ([1]; oral dose 1 mg/Kg): 27.72 ± 3.27 mg/dL
- % of inhibition (increase in serum glucose levels vs control) ([1]; oral dose 1 mg/Kg): 9.78%

Compound: O=C(O)Cc1ccccc1Nc1c(Cl)cccc1Cl [Diclofenac sodium]
- inhibition at 25 mg/kg [2]: 63.1%

Compound: COc1ccc(Cl)cc1C(=O)NCCc1ccc(S(=O)(=O)NC(=O)NC2CCCCC2)cc1 [Glibenclamide]
- Increased SGL (mean ± SE) ([1]; oral dose 25 mg/Kg): 6.12 ± 4.32 mg/dL
- % of inhibition (increase in serum glucose levels vs control) ([1]; oral dose 25 mg/Kg): 80.0%
